Measurements taken from patent US6204277A, “Propionic acid derivatives and applications thereof” (Japan Tobacco Inc., priority 1996, dated 2001).

Columns and labels:
3T3-L1 cells = assay: Evaluation of Insulin Sensitivity Using 3T3-L1 Cells (triglyceride accumulation); assay type: cell-based; conditions: Mus musculus, 96 h, insulin 10 ng/ml, 4 days, triglyceride increase by 10 μM pioglitazone taken as 100%, read-out: EC50 (dose necessary for a 50% increase of triglyceride)
Procedure: Evaluation of Insulin Sensitivity Using 3T3-L1 Cells 3T3-L1 cells (purchased from American Type Culture Collection) which were in the n=x+3 passage were purchased and subcultured until the passage number reached n=x+8. The cells were frozen in liquid nitrogen, thawed and suboultured till n=x+11. 0.05% Trypsin-0.53 mM ethylenediaminetetraacetic acid (EDTA) was added and the cells were harvested. The cells were suspended in Dulbecco's modified Eagle's medium (DMEM) [5% fetal bovine serum (FBS), supplemented with 5.6 mM glucose], plated on a 24 well plate at a concentration of 0.5×10^5 cells/well and cultured. Two days later, the medium was changed to DMEM [5% FBS, supplemented with 5.6 mM glucose] containing 1 μM dexamethasone and 0.5 mM isobutylmethylxanthine and the incubation was continued for 2 more days. The test compounds were dissolved in dimethyl sulfoxide and diluted 1000-fold with DMEM [2% FBS, supplemented with 5.6 mM glucose] containing insulin (10 ng/ml) to make the final concentration thereof to 0 nM-10 μM, and added to the cells, which cells were incubated for 4 days. After incubation, isopropanol was added by 200 μl per well and the cells were ruptured by a probe type ultrasonicator. The triglyceride amount was determined using a triglyceride determination kit. The activity of the compounds was determined by calculating relative triglyceride increase achieved by each compound when that achieved by 10 μM pioglitazone was taken as 100%, and expressed by the dose (EC50) necessary for a 50% increase of triglyceride. The test compounds were those of Examples 1-3, 5, 8, 15, 16, 18, 19, 22 and 28 and Reference Example 1. As a control compound, used was a known compound of the following formula. The above test concerns whether or not the insulin sensitivity of 3T3-L1 cells is promoted. […] When insulin acts on 3T3-L1 cells, it not only takes up glucose but permits accumulation of triglyceride in the cells. Thus, after allowing insulin to act, the cells are ruptured and triglyceride is quantitatively determined, whereby the degree of the action of insulin and the degree of sensitivity can be known.

diabetic mice (KK-Ay) = assay: Evaluation of Serum Glucose of Diabetic Mice; assay type: in vivo; conditions: Mus musculus, 96 h; KK-Ay male mice, oral in diet, 4 days; read-out: Serum glucose ED50 (dose corresponding to a -50% change)
Procedure: Evaluation of Serum Glucose of Diabetic Mice
Genetically obese, hyperglycemic, hyperinsulinemic and hyperlipidemic diabetic mice (KK-Ay, male, Clea Japan, Inc., 8 weeks of age) were used for the pharmacological tests. Before the initiation of the drug administration, about 100 μl of blood was taken from orbital venosus under light ether anesthesia, and serum glucose was measured as described below. Based on the obtained value and body weight, the mice were grouped (6 per group) in such a manner that there existed no differences between the groups.
The test compounds were those of Examples 1 and 5 and Reference Example 1, as well as the above-mentioned control compound.
The test compounds were respectively dissolved in ethanol (three levels of concentrations per compound) and added to a powdered diet (CRF-1, ORIENTAL YEAST CO., LTD.). The diet was homogeneously mixed and ethanol was evaporated. The diet was given to the above-mentioned mice for 4 days, and the test compounds were orally administered (3 doses each). To a control group, CRF-1 powdered diet was given.
At day 4, blood samples (ca. 200 μl) were taken again in the same manner as above, and serum was separated (12,000 rpm, 5 min.) and used for the determination. Serum glucose was measured by hexokinase method (LYQUITECH glucose-HK-test; Boehlinger Marnheim Yamanouchi). Used for the determination was an automatic analyzer COBAS FARA II (Roche).
Changes in percentage of serum glucose of each group were calculated as follows from the values obtained at day 4 from the control group and the group administered with test compounds. [formula]
The changes in percentage of serum glucose was plotted on the axis of ordinates and the dose (mg/kg/day) of the test compound was plotted on the axis of abscissa (log), and the dose corresponding to a -50% change was read and taken as the ED50 of each test compound.

CCc1ccc(CCOc2ccc(CC3SC(=O)NC3=O)cc2)nc1 (centres unmarked) [Control compound, reference compound] showed an EC50 (3T3-L1 cells) of 180 nM and an ED50 (diabetic mice (KK-Ay)) of 10.6 mg/kg.
COC(=O)C(Cc1ccc(OCCc2nc(-c3ccccc3)oc2C)cc1)C(=O)O (centres unmarked) [Example 1, 2-Methoxycarbonyl-3-[4-[2-(5-methyl-2-phenyl-4-oxazolyl)ethoxy]phenyl]propionic acid] gave an EC50 (3T3-L1 cells) of 0.45 nM and an ED50 (diabetic mice (KK-Ay)) of 0.12 mg/kg.
Compound COC(=O)C(Cc1ccc(OCCc2nc(-c3ccccc3)oc2C)cc1)C(N)=O (centres unmarked) [Example 2, Methyl 2-carbamoyl-3-[4-[2-(5-methyl-2-phenyl-4-oxazolyl)ethoxy]phenyl]propionate] has an EC50 (3T3-L1 cells) of 90 nM.
Work on Cc1oc(-c2ccccc2)nc1CCOc1ccc(CC(C(N)=O)C(=O)O)cc1 (centres unmarked) [Example 3, 2-Carbamoyl-3-[4-[2-(5-methyl-2-phenyl-4-oxazolyl)ethoxy]phenyl]propionic acid] yielded an EC50 (3T3-L1 cells) of 150 nM.
With Cc1oc(-c2ccccc2)nc1CCOc1ccc(CC(C(=O)O)C(=O)O)cc1 [Example 5, 2-[4-[2-(5-Methyl-2-phenyl-4-oxazolyl)ethoxy]benzyl]malonic acid] the EC50 (3T3-L1 cells) was 7.2 nM and the ED50 (diabetic mice (KK-Ay)) was 2.7 mg/kg.
With COC(=O)NC(=O)C(Cc1ccc(OCCc2nc(-c3ccccc3)oc2C)cc1)C(=O)OC (centres unmarked) [Example 8, Methyl 2-methoxycarbonylcarbamoyl-3-[4-[2-(5-methyl-2-phenyl-4-oxazolyl)ethoxy]phenyl]propionate] the EC50 (3T3-L1 cells) was 7 nM.
In the case of Cc1oc(-c2cc3ccccc3s2)nc1CCOc1ccc(CCC(=O)NC(N)=O)cc1 [Example 15, N-[3-[4-[2-(2-(Benzothiophen-2-yl)-5-methyl-4-oxazolyl)ethoxy]phenyl]propionyl]urea], the EC50 (3T3-L1 cells) is reported as 90 nM.
Compound COC(=O)CCc1ccc(OCCc2nc(-c3ccccc3)oc2C)cc1 [Example 16, Methyl 3-[4-[2-(5-methyl-2-phenyl-4-oxazolyl)ethoxy]phenyl]propionate] has an EC50 (3T3-L1 cells) of 53 nM.
Work on Cc1oc(-c2ccccc2)nc1CCOc1ccc(CCC(N)=O)cc1 [Example 18, 3-[4-[2-(5-Methyl-2-phenyl-4-oxazolyl)ethoxy]phenyl]propionamide] yielded an EC50 (3T3-L1 cells) of 65 nM.
In the case of COC(=O)NC(=O)CCc1ccc(OCCc2nc(-c3ccccc3)oc2C)cc1 [Example 19, Methyl N-[3-[4-[2-(5-methyl-2-phenyl-4-oxazolyl)ethoxy]phenyl]propionyl]carbamide], the EC50 (3T3-L1 cells) is reported as 90 nM.
For CSC(=O)NC(=O)CCc1ccc(OCCc2nc(-c3ccccc3)oc2C)cc1 [Example 22], the EC50 (3T3-L1 cells) was 90 nM.
In the case of Cc1oc(-c2ccccc2)nc1CCOc1ccc(CC(C)(C(N)=O)C(=O)O)cc1 (centres unmarked) [Example 28, 2-Carbamoyl-2-methyl-3-[4-[2-(5-methyl-2-phenyl-4-oxazolyl)ethoxy]phenyl]propionic acid], the EC50 (3T3-L1 cells) is reported as 73 nM.
With COC(=O)C(Cc1ccc(OCCc2nc(-c3ccccc3)oc2C)cc1)C(=O)OC [Reference Example 1, Dimethyl 2-[4-[2-(5-methyl-2-phenyl-4-oxazolyl)ethoxy]benzyl]malonate] the EC50 (3T3-L1 cells) was 0.38 nM and the ED50 (diabetic mice (KK-Ay)) was 0.17 mg/kg.
